Source: EP1073431B1, “USE OF NMDA ANTAGONISTS FOR TREATMENT OF IRRITABLE BOWEL SYNDROME” (AstraZeneca AB, priority 1998, dated 1999)
Counter-ions that a name gives are not always drawn.

What was measured:
[1] = tested on: visceromotor response (VMR) elicited by colorectal distension (CRD); experiment: visceromotor response (VMR) elicited by colorectal distension (CRD) in conscious rats; assay type: in vivo, Sprague-Dawley rats; conditions: for VMR to noxious CRD: CRD 80 mmHg, naive rats; for effect on VMR to CRD: 1-100 nmol, hydrochloride
Protocol: Adult male Sprague-Dawley rats (250-350g, Harlan, San Diego, CA) served as animal subjects. Rats were housed 5-6 per cage, allowed free access to food and water, and were maintained on a 12 h light-dark cycle (lights on between 06.00 and 18.00 h).
Rats were deeply anesthetized with pentobarbital sodium (45 mg/kg, Nembutal, Abbott Labs, North Chicago, IL) administered intraperitoneally. […] The electrode leads were tunneled subcutaneously and exteriorized at the nape of the neck for future access. Some animals were also implanted with venous catheters in the femoral vein to enable i.v. administration of drugs. For intrathecal (i.t.) drug administration, an i.t. catheter (PE-10 tubing, 8.5 cm long) was inserted through the dura overlying the atlanto-occipital junction and threaded to the level of the lumbar enlargement (Yaksh and Rudy, 1976). The venous or i.t. catheter was surgically anchored to musculature at the back of the neck, and externalized with the electrode leads. The wounds were closed in layers with 4-0 silk. Rats were housed singly and allowed to recuperate for at least 3-5 days prior to testing.
The stimulus employed has been previously described (Gebhart and Sengupta, 1996). Briefly, the descending colon and rectum were distended by pressure-controlled air inflation of a 6 cm long flexible latex balloon tied around a flexible tube (Tygon). The balloon was lubricated (Surgilube, E. Fougera and Co., Melville, NY), inserted intra-anally and anchored by taping the balloon catheter to the base of the tail. […] The behavioral response quantified was the visceromotor response, a contraction of the abdominal and hindlimb (Ness and Gebhart, 1988). EMG activity in the external oblique musculature was quantified by computing the average amplitude (Dr. Alfred Bayati Astra Hässle). Each distension trial lasted 60 s and EMG activity was quantified 20 s before distension (baseline), during distension, and 20 s after distension. The increase in EMG amplitude during distension over baseline was recorded as the response.
On the day of testing, animals were briefly anesthetized with Metophane®, and the balloon was inserted and secured in place as described above. Rats were allowed to recover for 30-40 min, following which two stable control responses to CRD (80 mmHg, 20 s, 4 min interstimulus interval) were obtained.
Drugs were administered i.v. into the femoral vein through the indwelling catheter. All doses were administered in a volume of up to 230 µl followed by a flush with 100 µl of preservative-free saline over a period of 30s. Dose response curves were generated using a cumulative dosing paradigm. The first i.v. injection was made 2 min after the second control response. Subsequent doses were injected 8 min apart, thus allowing two distensions after each dose. Data are reported as the average response to the two distensions.
In one group of animals, memantine was administered to the lumbar enlargement through the indwelling i.t. catheter with the aid of a […] injection needle connected to a 25 ul Hamilton syringe by a length of polyethylene tubing (PE-10). All doses were administered in a volume of 5 µl followed by a flush with 10 µl of preservative-free saline over a period of 1 min. The progress of the injection was continuously monitored by following the movement of an air bubble in the tubing. The dose response curve was generated using a cumulative dosing paradigm. The first i.t. injection was made 2 min after the second control response. Subsequent doses were injected 8 min apart, thus allowing two distensions after each dose. Data are reported as the average response to the two distensions. […]

[2] = tested on: pelvic afferent nerve activity; experiment: pelvic afferent nerve activity elicited by colorectal distension in anesthetized rats; assay type: in vivo, Sprague-Dawley rats; conditions: intra-arterial, cumulative 1, 3, 6 and 10 mg/kg; CRD 80 mm Hg
Protocol: General procedures: Male Sprague-Dawley rats 425-450 g) were anesthetized initially with sodium pentobarbital (40-45 mg/kg ip) and maintained with α-chloralose (60 mg kg^-1 h^-1). The trachea was cannulated for mechanical ventilation with room air. The left common carotid artery was cannulated for recording blood pressure. The femoral artery and vein were catheterized for injection of drug and anesthetic, respectively. Rats were paralyzed with pancuronium bromide (0.3 mg/kg i.v.) and ventilated with room air (55-60 strokes/min and 3-4 ml stroke volume). Supplemental doses of pancuronium bromide (0.2-0.3 mg kg^-1 h^-1) were given to maintain paralysis during the course of experiment. The mean arterial blood pressure was monitored continuously and maintained at >80 mm Hg with supplemental intravenous injection of 5% dextrose in saline given in a bolus of 1 to 1.5 ml as required. […]
Recordings of afferent nerve action potentials: The S1 dorsal root was identified and decentralized at its entry to the spinal cord. […] Electrical activity of single units was recorded monopolarly by placing a teased fiber over one arm of a bipolar silver-silver chloride electrode; a fine strand of connective tissue was placed across the other pole of the electrode. […]

[3] = i.v., 1-10 mg/kg, conscious rats (figure legends)
[4] = i.v., most effective dose tested 60 mg/kg
[5] = intrathecal (i.t.), up to a dose of 300nmol, conscious rats

SMILES	effect on viscero-motor responses (VMR) to noxious colorectal distension [1, 3]	VMR to noxious CRD [1, 4]	VMR to noxious CRD ([1]; i.v., most effective dose tested (dose not given))	effect on viscero-motor responses (VMR) to noxious colorectal distension [1, 5]	VMR to noxious CRD ([1]; i.v., most effective dose tested 100 mg/kg)	VMR to noxious CRD ([1]; i.v., most effective dose tested 10 mg/kg)	effect on VMR to CRD ([1]; intrathecal (i.t.), conscious rats)	effect on VMR to CRD ([1]; intrathecal (i.t.), conscious rats, listed as Memantine)	pelvic nerve activity elicited by distention of the colon [2]
CCNC(Cc1cnccn1)c1ccccc1 (single isomer, unassigned; (+)) [Compound 3, (+) N-ethyl-1-phenyl-2-(3-pyrazine)ethanamine hydrochloride]	dose-dependently (1-10 mg/kg) attenuated VMR	5 % of control	–	–	–	–	–	–	–
N=C(N)c1cccc(CC(N)c2ccccc2)n1 (stereo not shown) [Compound 1, 2-amidino-6-(2-amino-2-phenyl)-ethylpyridine trihydrochloride]	dose-dependently (1-10 mg/kg) attenuated VMR	–	13 % of control	None of the three compounds attenuated VMR	–	–	–	–	–
Cl.NCC(=O)NC(Cc1ccccc1)c1ccccc1 (stereo not shown) [Compound 2, 2-amino-N-(1,2-diphenylethyl)acetamide hydrochloride]	dose-dependently (1-10 mg/kg) attenuated VMR	40 % of control	–	None of the three compounds attenuated VMR	–	–	–	–	–
Cl.NC(Cn1cccn1)c1ccccc1 (stereo not drawn) [Compound 4, alpha-phenyl-1H-pyrazole-1-ethanamine hydrochloride]	dose-dependently (1-10 mg/kg) attenuated VMR	–	–	None of the three compounds attenuated VMR	10 % of control	–	–	–	–
CC12CC3CC(C)(C1)CC(N)(C3)C2 [memantine, memantine hydrochloride, reference compound]	dose-dependantly attenuate VMR	–	–	–	–	28 % of control	without effect	did not attenuate VMR	reduced, in a dose-dependent fashion
